We go through 19 compounds from patent publication US20110288052A1, “NOVEL COMPOUNDS, PHARMACEUTICAL COMPOSITIONS CONTAINING SAME, AND METHODS OF USE FOR SAME” (priority 2008, published 2011).

≈ marks a conversion by molar mass, not a printed value.

A short description of series [1]: Solubility problem noted during the assays. In kind it is physicochemical. The settings on record: for solubility: read-out: Sol Prob (solubility problem at concentration).
In a further series the test system is HCT116 cells. Description: XTT cytotoxicity assay, HCT116 (H). The format is cell-based. To be noted: Homo sapiens, HCT-116. The method, then: (§1) XTT Cytotoxicity Assay The XTT assay is a non-radioactive alternative for the [^51Cr] release cytotoxicity assay. XTT is a tetrazolium salt that is reduced to a formazan dye only by metabolically active, viable cells. The reduction of XTT is measured spectrophotometrically as OD490-OD650. To measure the cytotoxicity of specific compounds against cancer cells, 9×10^3 MCF-7 human breast cancer cells (shown in the tables as “(M)”), obtained from the American Type Culture Collection are plated per well in 96 well plates in DMEM medium with 10% fetal bovine serum, insulin, penicillin, and streptomycin. Following overnight culture at 37° C. and 5% CO2, the compounds to be tested, dissolved in DMSO, are added to the wells in 1 μl volume at the following concentrations: 80, 40, 20, 10, 5, 2.5, 1.25, and 0.625 μg/ml in triplicate. Additional concentrations are tested if required. 1 μl of DMSO is added to triplicate wells are the vehicle control. C75 is run at 40, 20, […], and 5 μg/ml in triplicate as positive controls. After 72 hours of incubation, cells are incubated for 4 hours with the XTT reagent as per manufacturer's instructions (Cell Proliferation Kit II (XTT) Roche). Plates are read at OD490 and OD650 on a Molecular Devices SpectraMax Plus Spectrophotometer. Three wells containing the XTT reagent without cells serve as the plate blank. XTT data are reported as OD490-OD650. Averages and standard error of the mean are computed using SOFTmax Pro software (Molecular Dynamics). The IC50 for the compounds is defined as the concentration of drug leading to a 50% reduction in OD490-OD650 compared to controls. The OD490-OD650 are computed by the SOFTmax PRO software (Molecular Devices) for each compound concentration. IC50 is calculated by linear regression, plotting the FAS activity as percent of control versus drug concentrations. Linear regression, best-fit line, r^2, and 95% confidence intervals are determined using Prism Version 3.0 (Graph Pad Software). The test was also run against OVCAR3 cells (“OV”), and HCT116 cells (“H”).

The subject of a further series is OVCAR3 cells. Put plainly: XTT cytotoxicity assay, OVCAR3 (OV). The format is cell-based. The settings on record: Homo sapiens. The method, then:
as §1
In general terms: Tetrazolium assays rely on reduction of a dye to a coloured formazan, in cell work by metabolically active cells.

Series [2] deals with MCF-7 human breast cancer cells (fatty acid synthesis pathway activity). Put plainly: [14C]acetate incorporation into total lipids. To be noted: MCF7, [14C]acetate incorporation into lipids. The format is cell-based. The method, then: Measurement of [^14C]acetate Incorporation into Total Lipids and Determination of IC50 of Compounds. This assay measures the incorporation of [^14C]acetate into total lipids and is a measure of fatty acid synthesis pathway activity in vitro. It is utilized to measure inhibition of fatty acid synthesis in vitro.
MCF-7 human breast cancer cells cultured as above, are plated at 5×10^4 cells per well in 24-well plates. Following overnight incubation, the compounds to be tested, solubilized in DMSO, are added at 5, 10, and 20 μg/ml in triplicate, with lower concentrations tested if necessary. DMSO is added to triplicate wells for a vehicle control. C75 is run at 5 and 10 μg/ml in triplicate as positive controls. After 4 hours of incubation, 0.25 μCi of [^14C]acetate (10 μl volume) is added to each well.
After 2 hours of additional incubation, medium is aspirated from the wells and 800 μl of chloroform:methanol (2:1) and 700 μl of 4 mM MgCl2 is added to each well. Contents of each well are transferred to 1.5 Eppendorf tubes, and spun at full-speed for 2 minutes in a high-speed Eppendorf Microcentrifuge 5415D. After removal of the aqueous (upper) layer, an additional 700 μl of chloroform:methanol (2:1) and 500 μl of 4 mM MgCl2 are added to each tube and then centrifuged for 1 minutes as above. The aqueous layer is removed with a Pasteur pipette and discarded. An additional 400 μl of chloroform:methanol (2:1) and 200 μl of 4 mM MgCl2 are added to each tube, then centrifuged and aqueous layer is discarded. The lower (organic) phase is transferred into a scintillation vial and dried at 40° C. under N2 gas. Once dried, 3 ml of scintillant (APB #NBC5104) is added and vials are counted for ^14C. The Beckman Scintillation counter calculates the average cpm values for triplicates.
The IC50 for the compounds is defined as the concentration of drug leading to a 50% reduction in [^14C]acetate incorporation into lipids compared to controls. This is determined by plotting the average cpm for each inhibitor concentration tested, performing linear regression and computing the best-fit line, r^2 values, and 95% confidence intervals. The average cpm values are computed by the Beckman scintillation counter (Model LS6500) for each compound concentration. Computation of linear regression, best-fit line, r^2, and 95% confidence intervals are calculated using Prism Version 3.0 (Graph Pad Software).

The nature of another series: Weight loss screen. The settings on record: 60 mg/kg intraperitoneally. The format is in vivo, Balb/C mice. The procedure:
Weight Loss Screen Balb/C mice (Jackson Labs) are utilized for the initial weight loss screening. Animals are housed in temperature and 12 hour day/night cycle rooms and fed mouse chow and water ad lib. Three mice are utilized for each compound tested with vehicle controls in triplicate per experiment. For the experiments, mice are housed separately for each compound tested three mice to a cage. Compounds are diluted in DMSO at 10 mg/ml and mice are injected intraperitoneally with 60 mg/kg in approximately 100 μl of DMSO or with vehicle alone. Mice are observed and weighed daily; average weights and standard errors are computed with Excel (Microsoft). The experiment continues until treated animals reach their pretreatment weights.

What is called IC50 is the concentration at which inhibition is half-maximal. Read a low IC50 as greater potency. Take `CCCCCCCCC1(C)SC(=O)C=C1OCC(=O)Nc1ccc(SC)cc1` (centres unmarked): the solubility in series [1] is 40 µg/mL (≈ 94.9 µM). The IC50 with HCT116 cells was 11.5 µg/mL (≈ 27.3 µM); in the series on OVCAR3 cells (OVCAR-3), 16.9 µg/mL (≈ 40.1 µM); in series [2], > 80 µg/mL.
Taken in the same sequence, the figures for `CCCCCCCCC1(C)SC(=O)C=C1OCC(=O)Nc1cccc(OC(F)(F)F)c1` (centres unmarked) were 40 µg/mL (≈ 87 µM), 8 µg/mL (≈ 17.4 µM), 11.6 µg/mL (≈ 25.2 µM) and 17.1 µg/mL (≈ 37.2 µM).
Taken in the same sequence, the figures for `CCCCCCCCC1(C)SC(=O)C=C1OCC(=O)Nc1ccccc1SC` (centres unmarked) were 40 µg/mL (≈ 94.9 µM), 31.4 µg/mL (≈ 74.5 µM), 43.8 µg/mL (≈ 104 µM) and > 80 µg/mL.
For `CCCCCCCCC1(C)SC(=O)C=C1OCC(=O)Nc1ccc2c(c1)OCO2` (centres unmarked), the half-inhibitory concentration (IC50) in the series on HCT116 cells is 14.8 µg/mL (≈ 35.3 µM); with OVCAR3 cells (OVCAR-3), 9.3 µg/mL (≈ 22.2 µM).
Regarding `CCCCCCCCOc1ccc(NC(=O)COC2=CC(=O)SC2(C)CCCCCCCC)cc1` (centres unmarked), the results for the IC50 (in the series with HCT116 cells; with OVCAR3 cells (OVCAR-3); in series [2]) were > 80 µg/mL, 67 µg/mL (≈ 133 µM) and > 80 µg/mL, respectively.
For the compound `CCCCCCCCC1(C)SC(=O)C=C1OCC(=O)Nc1ccc(Oc2ccc(Cl)cc2)cc1` (centres unmarked), the “Weight Loss” value in “Weight loss screen” (day 4) is given as 60 mg/kg: 3.1% (day 4). The IC50 with HCT116 cells is 6.3 µg/mL (≈ 12.5 µM); with OVCAR3 cells (OVCAR-3), 5 µg/mL (≈ 9.96 µM); in series [2], > 80 µg/mL.
Turning to `CCCCCCCCC1(C)SC(=O)C=C1OCC(=O)Nc1ccccc1N1CCCCC1` (centres unmarked), the 50% inhibitory concentration (IC50) with HCT116 cells is 13.1 µg/mL (≈ 28.6 µM); with OVCAR3 cells (OVCAR-3), 15.5 µg/mL (≈ 33.8 µM).
For `CCCCCCCCC1(C)SC(=O)C=C1OCC(=O)Nc1ccc(Cl)cc1Cl` (centres unmarked), in series [1], the solubility stood at 40 µg/mL (≈ 90 µM). The 50% inhibitory concentration (IC50) in the series on HCT116 cells was found to be 13.1 µg/mL (≈ 29.5 µM); in the series with OVCAR3 cells (OVCAR-3, unit given as ml), 64.5 µg/mL (≈ 145 µM).
As to `CCCCCCCC[C@]1(C)SC(=O)C=C1OCC(=O)Nc1ccccc1C(F)(F)F`, the solubility in series [1] is 80 µg/mL (≈ 180 µM). Moreover, the IC50 with HCT116 cells was 15.6 µg/mL (≈ 35.2 µM); in the series on OVCAR3 cells (OVCAR-3), 24.1 µg/mL (≈ 54.3 µM); in series [2] it was > 80 µg/mL.
For the compound `CCCCCCCCC1(C)SC(=O)C=C1OCC(=O)Nc1ccccc1` (centres unmarked), the IC50 came out at 7.1 µg/mL (≈ 18.9 µM) in the series with HCT116 cells and 12.1 µg/mL (≈ 32.2 µM) in the series on OVCAR3 cells (OVCAR-3).
With `CCCCCCCCC1(C)SC(=O)C=C1OCC(=O)Nc1ccc(Cl)cc1` (centres unmarked), in the series “Weight loss screen” (day 1), the “Weight Loss” value is reported as 60 mg/kg: 0.2% (day 1). For the same compound, the “Solubility remark on FAS IC50” value in series [1] (FAS assay) was “Limited by Solubility”. The IC50 in the series with HCT116 cells is 5.9 ± 2.7 µg/mL (≈ 14.4 µM); with OVCAR3 cells (OVCAR-3) it was 9.2 ± 5 µg/mL (≈ 22.4 µM); in series [2] it was 19.2 ± 2 µg/mL (≈ 46.8 µM).
Take `CCCCCCCCC1(C)SC(=O)C=C1OCC(=O)Nc1ccc(-c2cccs2)cc1` (centres unmarked): the IC50 with HCT116 cells was > 80 µg/mL; with OVCAR3 cells (OVCAR-3), > 80 µg/mL; in series [2], 80.2 µg/mL (≈ 175 µM).
For `CCCCCCCCC1(C)SC(=O)C=C1OCC(=O)Nc1ccc(OC)cc1` (centres unmarked), the values for the IC50 (in the series on HCT116 cells; in the series on OVCAR3 cells (OVCAR-3); in series [2]) were 15.6 µg/mL (≈ 38.5 µM), 17.8 µg/mL (≈ 43.9 µM) and 23 µg/mL (≈ 56.7 µM), respectively.
On to `CCCCCCCCC1(C)SC(=O)C=C1OCC(=O)Nc1cccc(C(F)(F)F)c1` (centres unmarked), for which the solubility in series [1] was found to be 80 µg/mL (≈ 180 µM). Further, the IC50 came to 7.6 µg/mL (≈ 17.1 µM) with HCT116 cells, 11 µg/mL (≈ 24.8 µM) in the series with OVCAR3 cells (OVCAR-3) and 12.3 µg/mL (≈ 27.7 µM) in series [2].
Take `CCCCCCCCC1(C)SC(=O)C=C1OCC(=O)Nc1ccc(Cl)cc1C(F)(F)F` (centres unmarked): the IC50 was 14 µg/mL (≈ 29.3 µM) in the series with HCT116 cells and 24 µg/mL (≈ 50.2 µM) in the series with OVCAR3 cells (OVCAR-3).
Turning to `CCCCCCCCC1(C)OC(=O)C=C1OCC(=O)Nc1ccc(Cl)cc1` (centres unmarked), in series [1], the solubility is 80 µg/mL (≈ 203 µM). Besides, the figures for the IC50 in the series with HCT116 cells and in the series on OVCAR3 cells (OVCAR-3) were 4.8 µg/mL (≈ 12.2 µM) and 9.2 µg/mL (≈ 23.4 µM), respectively.
`CCCCCCCCC1(C)SC(=O)C=C1OCC(=O)Nc1ccc(OC(F)(F)F)cc1` (centres unmarked): in the series “Weight loss screen” (day 1), the “Weight Loss” value is 60 mg/kg: 2.2% (day 1). The IC50 in the series with HCT116 cells is 3.5 µg/mL (≈ 7.62 µM); in the series on OVCAR3 cells (OVCAR-3) it was 3.3 µg/mL (≈ 7.18 µM); in series [2] it was 8.2 µg/mL (≈ 17.8 µM).
With `CCCCCCCC[C@]1(C)SC(=O)C=C1OCC(=O)Nc1ccccc1OC(F)(F)F`, the results for the IC50 (in the series on HCT116 cells; with OVCAR3 cells (OVCAR-3); in series [2]) were 78.8 µg/mL (≈ 171 µM), > 80 µg/mL and > 80 µg/mL, respectively.
Regarding `CCCCCCCCC1(C)SC(=O)C=C1OCC(=O)Nc1ccc(C(F)(F)F)cc1` (centres unmarked), the IC50 is 4.8 µg/mL (≈ 10.8 µM) in the series with HCT116 cells, 4 µg/mL (≈ 9.02 µM) with OVCAR3 cells (OVCAR-3) and < 2.5 µg/mL in series [2].
